In patent publication US8246966B2, “Trypanosome microsome system and uses thereof” (priority 2006, dated 2012):

Experiments:
[1] = tested on: Bloodstream T. brucei CA427; test: Bloodstream T. brucei cell culture drug susceptibility (Example 4); format: cell-based, Trypanosoma brucei; details: cultured bloodstream T. brucei
Experimental: Cell Culture. Bloodstream T. brucei cell culture and drug susceptibility studies were performed as previously described. Bloodstream T. brucei CA427 were cultured in HMI-9 media (Hirumi and Hirumi, 1994, Parasitol Today; 10(2):80-4) to a density of 10^6 cells/ml. Cells were seeded (500 μl of 4×10^4 cells/ml) to a 24-well plate and exposed to MAL3-101, CAM741, and NFI028 at listed concentrations (see figure legends) or an equal volume of DMSO. Cells were incubated at 37° C. and counted after 24 and 48 hours, using a hemocytometer.

[2] = tested on: T. brucei microsomes (TbRM); test: Post-translational import of VSG-11786 into TbRM with inhibitors (Example 4); format: biochemical, Trypanosoma brucei; details: 10 μM
Experimental: FIGS. 7A to 7C. […] VSG-11786 mRNA was translated in rabbit reticulocyte lysate in the absence or presence of T. brucei cytosol for 1 hour at 37° C., and then cycloheximide was added to stop protein synthesis. TbRM (1 equivalent) and MAL3-101 (10 μM), MAL3-51 (10 μM), or an equal volume of DMSO was added to the samples on ice, and the mixture was incubated at 37° C. for 1.5 hours for translocation of VSG-11786 into the microsomes. Reaction mixtures were treated with proteinase K (PK) for one hour on ice. Proteolysis was terminated with PMSF. Proteins were precipitated with ammonium sulfate, pelleted by centrifugation, resuspended in SDS-PAGE sample buffer, and resolved by Tris-Tricine SDS-PAGE. Gel images were obtained with a phosphorimager and analyzed with Quantity-One software. Reaction mixtures for odd numbered lanes contained TbRM, but not proteinase K; even numbered lanes contained TbRM and proteinase K. Brackets denote lanes that were compared to obtain percentage of VSG-11786 import values. FIG. 7B is a graphical representation of data from FIG. 7A. […] In FIG. 7C, the effect of MAL3-101 on T. brucei growth.
FIGS. 8A to 8D. Effects of NFI028 and CAM741 on import of VSG-11786 into T. brucei microsomes. […] VSG-11786 mRNA was translated in rabbit reticulocyte lysate in the presence of T. brucei cytosol for one hour at 37° C., and then protein synthesis was stopped by the addition of cycloheximide. […] Reaction mixtures were treated with proteinase K (PK) on ice for one hour. Proteolysis was terminated with PMSF. Proteins were precipitated with ammonium sulfate, pelleted, resuspended in SDS-PAGE sample buffer, and resolved by Tris-Tricine SDS-PAGE. Images of radiolabeled proteins were obtained with a phosphorimager and quantitated with Quantity-One software. Samples depicted in odd numbered lanes contained TbRM, but were not treated proteinase K. Reaction mixtures shown in even numbered lanes contained TbRM and were treated with proteinase K. Brackets denote lanes that were compared to each other in order to obtain percentage of VSG-11786 import values. FIG. 8B is a graphical representation of data from FIG. 8A.
FIGS. 9A to 9D. Effects of azide, AEE788, and valinomycin on VSG-11786 import into T. brucei microsomes. […] VSG-11786 mRNA was translated in rabbit reticulocyte lysate in the presence of T. brucei cytosol for one hour at 37° C. Cycloheximide was added to stop proteins synthesis. TbRM (1 equivalent) and sodium azide (8 μM), AEE788 (8 μM), an equal volume of microsome buffer (RMB) or DMSO was added to the samples on ice, and the mixtures were incubated at 37 C for 1.5 hours. Reaction mixtures were treated with proteinase K (PK) on ice for one hour. Proteolysis was terminated with PMSF. Proteins were precipitated with ammonium sulfate, pelleted, resuspended in SDS-PAGE sample buffer, and resolved by Tris-Tricine SDS-PAGE. Images of radiolabeled proteins were obtained with a phosphorimager and quantitated with Quantity-One software. Brackets show lanes that were compared to each other in order to obtain percentage of VSG-11786 imported into TbRM. Lanes 1, 3, 5, & 7 were treated with TbRM, but not proteinase K. Lanes 2, 4, 6, & 8 were treated with TbRM and proteinase K. FIG. 9B is a graphical representation of data from FIG. 9A. […] Reaction mixtures depicted in odd lanes contained TbRM, but were not treated with proteinase K; even lanes contained TbRM and were treated with proteinase K. FIG. 9D is a graphical representation of data from panel FIG. 9C.

CCCCCCN(C(=O)CCCCCN1C(=O)NC(c2ccc(-c3ccccc3)cc2)C(C(=O)OCc2ccccc2)=C1C)C(C(=O)NCCCC)c1ccc(OCC(=O)OC)c(C(=O)OC)c1 (stereo not shown) [MAL3-101]
concentration killing all parasites [1]: 3 µM | IC50 ([1]; read-out: IG50, T. brucei growth): 1.5 µM | reduction of VSG-11786 import into TbRM compared to DMSO control ([2]; absence of T. brucei cytosol): 54% | VSG-11786 imported into TbRM ([2]; presence of T. brucei cytosol): 90%
